25 compounds from US11352340B2, “Pyridine and pyridimine compounds as PI3K-gamma inhibitors” (Incyte Corporation, priority 2016, dated 2022) can be followed below.

Structures are written as SMILES. Where a name gives a salt, the structure may show the parent alone. Read-outs that look alike come from different tables or passages of the source.

The test system of test [1] is Phosphorylated Ribosomal Protein S6 (RPS6) in THP-1 cells. The experiment in a line: THP-1 RPS6 ELISA Assay. The class given is cell-based, Human. The note with it: MCP-1 stimulated, phospho-RPS6 ELISA, read-out: THP p-RPS6 ELISA IC50. The procedure, abridged: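 Serum-starved THP-1 cells (2×10^5/well, RPMI) preincubated with compound 2 h at 37° C, then stimulated with 10 nM MCP-1 for 15 min. Lysates assayed by phospho-RPS6 ELISA, absorbance 450 nm (540 nm correction); IC50 from percent inhibition versus log concentration.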

Test [2] deals with PI3Kγ (p110γ) Recombinant Human Protein (Homo sapiens (Human), UniProt P48736). The experiment in a line: PI3K-γ Scintillation Proximity Assay. As to conditions: read-out: PI3K-gamma SPA IC50. Format: biochemical. The essentials: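 Recombinant human p110γ (13 nM) with 20 μM PIP2 and 2 μM ATP plus 0.5 μCi [γ-33P]ATP in 20 mM MOPS pH 6.7, 10 mM MgCl2, 5 mM DTT, 0.03% CHAPS, 2% DMSO, 120 min at room temperature. Product captured on WGA SPA beads and counted; IC50 fitted from % of solvent control versus log concentration.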

For test [3], the target named is PI3Kδ (p110δ/p85α) Recombinant Human Protein (Homo sapiens (Human), UniProt O00329). The test is described as follows: PI3Kδ Scintillation Proximity Assay. As to conditions: read-out: PI3K-delta SPA IC50. The class given is biochemical. The essentials: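 Recombinant human p110δ/p85α (3.4 nM) with 20 μM PIP2 and 2 μM ATP plus [γ-33P]ATP, in 20 mM MOPS pH 6.7, 10 mM MgCl2, 5 mM DTT, 0.03% CHAPS, 2% DMSO; 120 min at room temperature. Product captured on WGA SPA beads, scintillation counted; IC50 from percent-of-control curves.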
Chain of PI3Kδ (p110δ/p85α) Recombinant Human Protein (O00329 whole entry): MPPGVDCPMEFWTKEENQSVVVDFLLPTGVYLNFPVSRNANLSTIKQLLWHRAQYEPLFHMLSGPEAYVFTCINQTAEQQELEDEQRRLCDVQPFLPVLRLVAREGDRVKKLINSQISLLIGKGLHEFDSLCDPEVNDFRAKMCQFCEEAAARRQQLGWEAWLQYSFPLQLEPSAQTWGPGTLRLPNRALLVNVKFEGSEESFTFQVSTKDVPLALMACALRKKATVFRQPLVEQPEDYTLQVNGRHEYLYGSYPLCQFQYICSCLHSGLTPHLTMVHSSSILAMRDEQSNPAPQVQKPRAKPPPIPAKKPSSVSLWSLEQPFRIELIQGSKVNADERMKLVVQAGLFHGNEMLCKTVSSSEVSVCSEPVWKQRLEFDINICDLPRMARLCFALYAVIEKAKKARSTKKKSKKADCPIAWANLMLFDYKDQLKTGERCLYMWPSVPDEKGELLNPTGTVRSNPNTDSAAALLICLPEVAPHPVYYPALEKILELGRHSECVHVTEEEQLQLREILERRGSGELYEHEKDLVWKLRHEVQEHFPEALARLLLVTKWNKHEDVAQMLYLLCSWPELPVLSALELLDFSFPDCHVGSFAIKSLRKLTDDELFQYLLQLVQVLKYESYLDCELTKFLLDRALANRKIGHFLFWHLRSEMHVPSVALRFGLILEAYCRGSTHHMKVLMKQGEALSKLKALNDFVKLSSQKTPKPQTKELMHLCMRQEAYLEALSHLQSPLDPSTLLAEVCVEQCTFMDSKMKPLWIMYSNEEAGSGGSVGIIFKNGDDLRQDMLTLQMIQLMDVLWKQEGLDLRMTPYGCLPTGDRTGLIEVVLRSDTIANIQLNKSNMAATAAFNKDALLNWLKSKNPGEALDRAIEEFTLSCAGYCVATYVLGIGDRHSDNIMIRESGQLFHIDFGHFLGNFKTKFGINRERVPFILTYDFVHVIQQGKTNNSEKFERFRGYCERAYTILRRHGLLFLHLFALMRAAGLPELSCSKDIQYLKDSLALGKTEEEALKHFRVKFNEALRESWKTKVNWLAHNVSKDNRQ
Chain of PI3Kδ (p110δ/p85α) Recombinant Human Protein (P27986 whole entry partner): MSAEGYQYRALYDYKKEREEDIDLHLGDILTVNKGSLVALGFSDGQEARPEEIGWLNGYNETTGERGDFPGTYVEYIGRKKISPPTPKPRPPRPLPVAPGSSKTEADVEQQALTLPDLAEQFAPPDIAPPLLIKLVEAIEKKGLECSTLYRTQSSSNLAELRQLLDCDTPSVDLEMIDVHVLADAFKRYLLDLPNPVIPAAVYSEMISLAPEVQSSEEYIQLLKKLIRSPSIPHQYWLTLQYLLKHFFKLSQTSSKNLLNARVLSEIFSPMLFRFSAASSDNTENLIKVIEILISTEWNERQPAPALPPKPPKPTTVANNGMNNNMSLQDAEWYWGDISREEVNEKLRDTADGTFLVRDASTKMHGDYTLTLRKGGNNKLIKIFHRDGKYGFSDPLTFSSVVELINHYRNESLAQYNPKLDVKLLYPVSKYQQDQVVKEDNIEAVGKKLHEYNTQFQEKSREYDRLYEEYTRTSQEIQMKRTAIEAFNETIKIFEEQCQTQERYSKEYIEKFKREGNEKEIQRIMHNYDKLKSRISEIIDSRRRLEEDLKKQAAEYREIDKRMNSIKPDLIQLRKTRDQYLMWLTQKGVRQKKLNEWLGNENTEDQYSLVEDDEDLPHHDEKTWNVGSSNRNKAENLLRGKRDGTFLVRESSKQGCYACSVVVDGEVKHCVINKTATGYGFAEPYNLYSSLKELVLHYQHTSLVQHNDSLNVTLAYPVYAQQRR

Chain of PI3Kγ (p110γ) Recombinant Human Protein (P48736 whole entry): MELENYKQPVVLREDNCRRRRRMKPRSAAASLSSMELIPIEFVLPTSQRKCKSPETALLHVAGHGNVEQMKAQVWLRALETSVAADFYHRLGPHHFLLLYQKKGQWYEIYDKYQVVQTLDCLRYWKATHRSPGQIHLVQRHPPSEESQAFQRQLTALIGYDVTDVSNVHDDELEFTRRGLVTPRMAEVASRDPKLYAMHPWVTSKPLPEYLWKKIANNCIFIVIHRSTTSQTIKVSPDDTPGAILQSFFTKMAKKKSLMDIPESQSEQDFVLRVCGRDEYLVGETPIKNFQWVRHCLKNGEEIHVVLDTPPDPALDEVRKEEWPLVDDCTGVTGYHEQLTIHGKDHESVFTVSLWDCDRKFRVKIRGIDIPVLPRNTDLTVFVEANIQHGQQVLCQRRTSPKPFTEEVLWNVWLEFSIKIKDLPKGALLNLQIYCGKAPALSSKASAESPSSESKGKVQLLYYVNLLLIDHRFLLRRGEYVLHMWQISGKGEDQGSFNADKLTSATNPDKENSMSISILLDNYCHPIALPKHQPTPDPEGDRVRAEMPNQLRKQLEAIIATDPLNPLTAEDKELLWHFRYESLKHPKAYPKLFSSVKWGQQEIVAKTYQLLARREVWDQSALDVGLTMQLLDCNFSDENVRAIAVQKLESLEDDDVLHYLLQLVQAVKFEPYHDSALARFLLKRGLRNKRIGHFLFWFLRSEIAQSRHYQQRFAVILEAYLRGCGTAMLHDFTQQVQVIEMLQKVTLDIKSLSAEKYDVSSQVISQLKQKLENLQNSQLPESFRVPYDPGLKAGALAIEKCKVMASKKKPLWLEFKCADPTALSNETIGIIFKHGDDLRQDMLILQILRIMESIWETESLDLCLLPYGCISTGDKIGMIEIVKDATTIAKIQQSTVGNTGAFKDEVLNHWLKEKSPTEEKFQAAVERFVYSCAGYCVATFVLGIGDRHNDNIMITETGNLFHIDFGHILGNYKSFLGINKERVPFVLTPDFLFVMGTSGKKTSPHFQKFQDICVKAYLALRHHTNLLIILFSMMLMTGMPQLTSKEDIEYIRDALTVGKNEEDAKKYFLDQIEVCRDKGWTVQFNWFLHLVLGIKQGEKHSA

Turning to `Cc1c[nH]c(-c2cc(-c3cncc(S(=O)(=O)N[C@H]4CC[C@H](O)CC4)c3)ccn2)n1` [Example 299, N-((1r,4r)-4-Hydroxycyclohexyl)-2′-(4-methyl-1H-imidazol-2-yl)-[3,4′-bipyridine]-5-sulfonamide trifluoroacetate salt], the IC50 in test [1] was at most 300 nM; in test [2], at most 50 nM; in test [3], at most 50 nM.

Regarding `Cc1[nH]c(-c2cc(-c3cncc(S(C)(=O)=O)c3)ccn2)nc1C(=O)O` [Example 119, 5-Methyl-2-(5-(methylsulfonyl)-3,4′-bipyridin-2′-yl)-1H-imidazole-4-carboxylic acid trifluoroacetate salt], the IC50 was over 5000 nM in test [1] (Homo sapiens), at most 50 nM in test [2] and over 500 nM in test [3].

Take `Cc1nc(-c2cc(-c3cncc(N4CCOCC4)c3)ccn2)[nH]c1C` [Example 98, 4-(2′-(4,5-Dimethyl-1H-imidazol-2-yl)-3,4′-bipyridin-5-yl)morpholine trifluoroacetate salt]: the IC50 is at most 300 nM in test [1] (Homo sapiens), at most 100 nM in test [2] and at most 100 nM in test [3].

`CS(=O)(=O)c1cncc(-c2ccnc(-c3ncc(C4CC4)[nH]3)c2)c1` [Example 112, 2′-(5-Cyclopropyl-1H-imidazol-2-yl)-5-(methylsulfonyl)-3,4′-bipyridine trifluoroacetate salt]: the IC50 in test [1] (Homo sapiens) was 300 to 1000 nM; in test [2] it was at most 50 nM; in test [3], at most 50 nM.

Turning to `CCOC(=O)c1nc(-c2cc(-c3cncc(S(C)(=O)=O)c3)ccn2)[nH]c1C` [Example 241, Ethyl 5-methyl-2-[5-(methylsulfonyl)-3,4′-bipyridin-2′-yl]-1H-imidazole-4-carboxylate], the IC50 in test [1] (Homo sapiens) is 300 to 1000 nM; in test [2] it was at most 100 nM; in test [3], at most 50 nM.

In the case of `Cc1nc(-c2cc(-c3cncc(N4CC[C@@H](O)C4)c3)ccn2)[nH]c1C` [Example 231, (3R)-1-[2′-(4,5-Dimethyl-1H-imidazol-2-yl)-3,4′-bipyridin-5-yl]pyrrolidin-3-ol], the IC50 is 300 to 1000 nM in test [1] (Homo sapiens), at most 50 nM in test [2] and at most 100 nM in test [3].

Consider `Clc1ccc(Cn2cc(-c3ccnc(-c4ncc(-c5ccccc5)[nH]4)c3)cn2)cc1` [Example 1, 4-[1-(4-Chlorobenzyl)-1H-pyrazol-4-yl]-2-(5-phenyl-1H-imidazol-2-yl)pyridine Trifluoroacetate Salt], for which the IC50 in test [1] (Homo sapiens) was over 5000 nM; in test [2] it was at most 50 nM; in test [3], over 500 nM.

Turning to `COc1cncc(-c2ccnc(-c3ncc(-c4ccccn4)[nH]3)c2)c1` [Example 87, 5-Methoxy-2′-(5-(pyridin-2-yl)-1H-imidazol-2-yl)-3,4′-bipyridine trifluoroacetate salt], the values for the IC50 in test [1] (Homo sapiens), in test [2] and in test [3] were over 5000 nM, at most 100 nM and at most 50 nM, respectively.

`Cc1[nH]c(-c2cc(-c3cncc(N4CCOCC4)c3)ccn2)nc1C(=O)NC(C)c1cccc(F)c1` (racemic) [Example 277, N-[1-(3-Fluorophenyl)ethyl]-5-methyl-2-(5-morpholin-4-yl-3,4′-bipyridin-2′-yl)-1H-imidazole-4-carboxamide trifluoroacetate salt]: the IC50 in test [1] (Homo sapiens) was at most 300 nM; in test [2] it was at most 50 nM; in test [3], at most 50 nM.

Turning to `COc1cncc(-c2ccnc(-c3nnc(NC(C)C)[nH]3)c2)c1` [Example 67, N-Isopropyl-5-(5-methoxy-3,4′-bipyridin-2′-yl)-4H-1,2,4-triazol-3-amine trifluoroacetate salt], the IC50 in test [1] (Homo sapiens) was over 5000 nM; in test [2] it was at most 500 nM; in test [3], at most 500 nM.

On to `Cc1nc(-c2cc(-c3cncc(C(=O)NCC4CCCC4)c3)ccn2)[nH]c1C` [Example 207, N-(Cyclopentylmethyl)-2′-(4,5-dimethyl-1H-imidazol-2-yl)-3,4′-bipyridine-5-carboxamide trifluoroacetate salt], for which the IC50 in test [1] (Homo sapiens) is 1000 to 5000 nM; in test [2] it was at most 50 nM; in test [3], at most 500 nM.

On to `Cc1nc(-c2cc(-c3cncc(N4CCOCC4)c3)ccn2)[nH]c1C1CC1` [Example 104, 4-(2′-(5-Cyclopropyl-4-methyl-1H-imidazol-2-yl)-3,4′-bipyridin-5-yl)morpholine trifluoroacetate salt], for which the IC50 in test [1] (Homo sapiens) was at most 300 nM; in test [2] it was at most 50 nM; in test [3] it was at most 50 nM.

Turning to `CCNc1ncc(-c2cc(-c3cncc(OC)c3)ccn2)[nH]1` [Example 62, N-Ethyl-5-(5-methoxy-3,4′-bipyridin-2′-yl)-1H-imidazol-2-amine Trifluoroacetate Salt], the IC50 in test [1] (Homo sapiens) was over 5000 nM; in test [2] it was at most 100 nM; in test [3], over 500 nM.

As to `CNC(=O)c1nc(-c2cc(-c3cnn(Cc4ccc(Cl)cc4)c3)ccn2)[nH]c1C` [Example 296], the IC50 in test [1] (Homo sapiens) is over 5000 nM; in test [2] it was at most 50 nM; in test [3], over 500 nM.

On to `Cc1nc(-c2cc(-c3cncc(C(=O)N4CC[C@@H](F)C4)c3)ccn2)[nH]c1C` [Example 155, (R)-(2′-(4,5-Dimethyl-1H-imidazol-2-yl)-3,4′-bipyridin-5-yl)(3-fluoropyrrolidin-1-yl)methanone trifluoroacetate salt], for which the IC50 in test [1] (Homo sapiens) was at most 300 nM; in test [2], at most 50 nM; in test [3] it was at most 50 nM.

In the case of `Cc1nc(-c2cc(-c3cncc(S(C)(=O)=O)c3)ccn2)[nH]c1C` [Example 108, 2′-(4,5-Dimethyl-1H-imidazol-2-yl)-5-(methylsulfonyl)-3,4′-bipyridine trifluoroacetate salt], the IC50 is at most 300 nM in test [1] (Homo sapiens), at most 50 nM in test [2] and at most 50 nM in test [3].

With `c1cc(-c2cncc(N3CCOCC3)c2)cc(-c2ncc(C3CC3)[nH]2)n1` [Example 102, 4-(2′-(5-Cyclopropyl-1H-imidazol-2-yl)-3,4′-bipyridin-5-yl)morpholine trifluoroacetate salt], the IC50 in test [1] (Homo sapiens) is 300 to 1000 nM; in test [2] it was at most 100 nM; in test [3], at most 50 nM.

`Cc1nc(-c2cc(-c3cncc(C(=O)NC4CCOCC4)c3)ccn2)[nH]c1C` [Example 160, 2′-(4,5-Dimethyl-1H-imidazol-2-yl)-N-(tetrahydro-2H-pyran-4-yl)-3,4′-bipyridine-5-carboxamide trifluoroacetate salt]: the values for the IC50 in test [1] (Homo sapiens), in test [2] and in test [3] were 1000 to 5000 nM, at most 50 nM and at most 500 nM, respectively.

On to `Cc1nc(-c2cc(-c3cncc(C(=O)N4CCC(C)(O)C4)c3)ccn2)[nH]c1C` (racemic) [Example 180, 1-{[2′-(4,5-Dimethyl-1H-imidazol-2-yl)-3,4′-bipyridin-5-yl]carbonyl}-3-methylpyrrolidin-3-ol trifluoroacetate salt], for which the IC50 was 1000 to 5000 nM in test [1] (Homo sapiens), at most 50 nM in test [2] and at most 50 nM in test [3].

On to `N#Cc1ccccc1Cn1cc(-c2ccnc(-c3ncc(-c4ccccc4)[nH]3)c2)cn1` [Example 6, 2-((4-(2-(5-Phenyl-1H-imidazol-2-yl)pyridin-4-yl)-1H-pyrazol-1-yl)methyl)benzonitrile trifluoroacetate salt], for which the IC50 in test [1] (Homo sapiens) was over 5000 nM; in test [2] it was at most 100 nM; in test [3], at most 500 nM.

`Cc1[nH]c(-c2cc(-c3cncc(N4CCOCC4)c3)ccn2)nc1C(=O)NC1CCCCC1` [Example 265, N-Cyclohexyl-5-methyl-2-(5-morpholin-4-yl-3,4′-bipyridin-2′-yl)-1H-imidazole-4-carboxamide]: the IC50 was 300 to 1000 nM in test [1] (Homo sapiens), at most 50 nM in test [2] and at most 50 nM in test [3].

As for `Cc1nc(-c2cc(-c3cncc(C(=O)N(C)CC4(CO)CC4)c3)ccn2)[nH]c1C` [Example 205, 2′-(4,5-Dimethyl-1H-imidazol-2-yl)-N-{[1-(hydroxymethyl)cyclopropyl]methyl}-N-methyl-3,4′-bipyridine-5-carboxamide trifluoroacetate salt], the IC50 in test [1] (Homo sapiens) is 300 to 1000 nM; in test [2] it was at most 50 nM; in test [3] it was at most 100 nM.

On to `Cc1nc(-c2cc(-c3cncc(Nc4ccccc4)c3)ccn2)[nH]c1C` [Example 233, 2′-(4,5-Dimethyl-1H-imidazol-2-yl)-N-phenyl-3,4′-bipyridin-5-amine], for which the IC50 was 1000 to 5000 nM in test [1] (Homo sapiens), at most 50 nM in test [2] and at most 500 nM in test [3].

As to `Cc1[nH]c(-c2cc(-c3cncc(S(C)(=O)=O)c3)ccn2)nc1C(=O)N1CCOCC1` [Example 244, 2′-[5-Methyl-4-(morpholin-4-ylcarbony1)-1H-imidazol-2-yl]-5-(methylsulfony1)-3,4′-bipyridine], the IC50 in test [1] is over 5000 nM; in test [2], at most 100 nM; in test [3] it was at most 50 nM.

Take `COc1cncc(-c2ccnc(-c3ncc(C(C)(C)C)[nH]3)c2)c1` [Example 88, 2′-(5-tert-Butyl-1H-imidazol-2-yl)-5-methoxy-3,4′-bipyridine trifluoroacetate salt]: the IC50 in test [1] (Homo sapiens) was over 5000 nM; in test [2] it was at most 500 nM; in test [3], at most 50 nM.
